Test results: patent publication US10076505B2, “Inhalation formulations of Treprostinil” (priority 2003, dated 2018)
Where “and” joins values, the source holds several entries; their conditions need not be identical. Equal values may be shown once.

Tests used:
digital ischemic lesions = assay: Study of Treprostinil for digital ischemic lesions in patients with systemic sclerosis (Example VIII); assay type: in vivo, human
Description: This study involved 12 subjects with diffuse or limited scleroderma with at least one DIL that had been present for 2 months or more (Table 1). Subjects who completed the study were treated for 12 weeks with Treprostinil and followed for another 8 weeks after drug discontinuation (FIG. 1). […] Assessments were performed at baseline, weeks 2, 6, 12, 16, and 20. At each visit, the largest (target) lesion and other prominent DIL were measured by recording the largest diameter of the lesions. DIL were counted and photographed. Patient and physician global assessment of ulcers as well as patient assessment of disability from DIL were measured using visual analogue scales (VAS) at each visit.

Buerger's disease = assay: Case report: subcutaneous Treprostinil in severe Buerger's disease (Example IX); assay type: in vivo, human
Description: At this point, subcutaneous Treprostinil therapy was administered to the patient. Treprostinil was delivered chronically by continuous subcutaneous infusion using a pager-sized ambulatory infusion pump (Medtronic Minimed 407C, Minneapolis, Minn.)). […] The patient is now on a maintenance dose of Treprostinil 12 ng/kg/min from 9 PM-9 AM every seventh day, with no drug for the next 7 days.

critical limb ischemia = assay: Open-label study of subcutaneous treprostinil in critical limb ischemia (Example X); assay type: in vivo, human
From the text: The planned enrollment was ten patients. All patients were to have Fontaine Stage III-IV or Rutherford Class 4-6 disease and ankle brachial indexes (ABI) from 0-0.55 in the most affected limb or the limb containing the reference ischemic wound for wound healing assessments. […] Any condition or abnormal laboratory value which, based on information in the treprostinil package insert, would constitute an unacceptable risk to the patient's safety, also was an exclusion criterion. Patients could not have been in an investigational trial within the past 30 days or been a non-responder to chronic prostanoid treatment in the past 30 days.
After the completion of baseline assessments, treprostinil therapy was initiated in the clinic. […] Patients and/or a caregiver were trained to administer treprostinil on an outpatient basis using an ambulatory subcutaneous infusion pump (Minimed, Sylmar, Calif., Model 407C). Each patient was to be initiated at a dose of 2.5 ng/kg/min or lower, with the dose titrated based on tolerability. Dose increases were to be 1.25-2.5 ng/kg/min per week. The maximum allowed dose was 15 ng/kg/min and the minimum allowed dose was 0.625 ng/kg/min. The patients were instructed to change the subcutaneous infusion site every three days.
Patients returned to the clinic for assessments at Weeks 2, 6, and 12. Treprostinil treatment was terminated by gradually decreasing the infusion rate (over a period of 1-4 hours, as clinically indicated) after the Week 12 visit assessments were completed.
Safety was assessed in all patients using adverse event (AEs) and physical examination findings. Signs and symptoms of CLI or worsening CLI were not considered to be AEs unless found to be different in causality, intensity, or frequency.
Rest pain was assessed in all patients using a visual analog scale (VAS) for rest pain. The patients were asked to rate their leg pain on a scale of 0-10 with 0 reflecting no pain and 10 reflecting the worst pain. The scale was printed and the patients were asked to place a mark on the number that reflected their pain experience. Patients were asked to rate the worst pain they had experienced since the previous assessment and their average pain during that time frame. Analgesic medication use was assessed by the investigator as unchanged, increased, decreased, or discontinued.
Wound assessments were to be conducted in patients who had at least one ischemic wound at baseline. If the patient had multiple ischemic wounds, then one or two (usually the largest or most severe wounds) were be selected as reference wounds. The selected wound(s) was photographed for documentation. When possible, the outside edge of the wound(s) was traced for area measurement. The tracings were used to calculate wound area by measuring the length and width of the wound. Not all wounds were of the nature that tracings were possible for example, wounds between toes or on the heel with extensive tissue loss were not traced. These wounds were described and photographed.
In patients who had wounds other than those chosen as reference wounds, the overall status (i.e., worse, the same, improved, or healed) of each additional wound also was documented at each study visit. Any new wounds that occurred during the study also were carefully documented.

[1] = tested on: human alveolar macrophages; conditions: cited from earlier work
[2] = individual patients 1-10 (one table line each), versus baseline pain medication, listed as treprostinil

For `CCCCC[C@H](O)CC[C@@H]1[C@H]2Cc3cccc(OCC(=O)O)c3C[C@H]2C[C@H]1O` [UT-15, 9-deoxy-2′,9-alpha-methano-3-oxa-4,5,6-trinor-3,7-(1′,3′-interphenylene)-13,14-dihydro-prostaglandin F1], the “physician global assessment of DIL severity, average improvement” value (digital ischemic lesions; after 12 weeks of therapy) was 60%, the “patients who developed new ulcers during the 8-week follow-up period after drug discontinuation” value (digital ischemic lesions; after drug discontinuation) was “two of three” and the “new ulcers while receiving continuous therapy” value (digital ischemic lesions; any patients) was “No new ulcers”. The “subjective measures of severity of DIL (patient and physician global assessment, DIL disability VAS)” value (digital ischemic lesions; by week 6, all five subjects) was “marked improvements”, the “DIL disability VAS score, average improvement” value (digital ischemic lesions; by week 12) was 77% and the “patient global assessment, average improvement” value (digital ischemic lesions; by week 12) was 89%. The “average decrease in the size of baseline DIL” value (digital ischemic lesions; continuous sc infusion, 12 weeks) was 65%, the target lesions (digital ischemic lesions; four subjects who completed 12 weeks of active therapy, sc infusion up to 15 ng/kg/min) was “improved in all patients” and the “subjects unable to complete the study due to intolerable injection site pain” value (digital ischemic lesions; of 12 subjects) was “five”. The “subjects with complete resolution of their target lesions” value (digital ischemic lesions; of the four subjects who completed 12 weeks) was “three”, the “dose limiting side effects” value (Buerger's disease; in vivo) was “diarrhea and jaw pain” and the Doppler studies (Buerger's disease; one patient) was “improvement in pulse volume recording wave form”. For the same compound, the “return of ischemic symptoms after attempts to discontinue” value (Buerger's disease; one patient) was no more than 1 week, the maximum tolerated dose (Buerger's disease; one patient, continuous subcutaneous infusion) was 12.5 ng/kg/min and the “ulcer on right middle finger” value (Buerger's disease; one patient, maintenance 12 ng/kg/min) was “complete healing”. The “patient-reported comfort and activities of daily living” value (Buerger's disease; one patient, sc infusion 12.5 ng/kg/min) was “improved comfort and increased ability to participate in activities of daily living”, the “wounds during the twelve weeks of drug treatment” value (critical limb ischemia; Patient 3) was “remained stable” and the “average rest pain score” value (critical limb ischemia; Patient 3, 7 at baseline) was 4. The “worst rest pain score” value (critical limb ischemia; Patient 3, reduced from 8) was 4, the “reduction in average rest pain” value (critical limb ischemia; baseline to week 12) was 58% and the “reduction in the worst rest pain” value (critical limb ischemia; baseline to week 12) was 64%. For the same compound, the “relation of SAEs to treprostinil” value (critical limb ischemia; cholecystectomy, worsening congestive heart failure) was “unlikely to be related”, the pain relief (critical limb ischemia; conclusion of study) was “pain relief in all patients” and the “Pain Medication Consumption Week 2” value (critical limb ischemia; [2]) was “No change (5×) and Less (4×) and PERCOCET ®”. The “Pain Medication Consumption Week 6” value (critical limb ischemia; [2]) was “Less (5×) and Increased and No change (2×) and None and Discontinued”, the “Pain Medication Consumption Week 12” value (critical limb ischemia; [2]) was “Darvocet and PERCOCET ® and None (2×) and No change (4×)” and the “patients who discontinued drug prematurely” value (critical limb ischemia; of ten patients) was “Two”. For the same compound, the “patients with complete healing of their wounds” value (critical limb ischemia; of ten patients) was “Three”, the patients with diarrhea (critical limb ischemia; of ten patients) was “one” and the “patients with mild headache” value (critical limb ischemia; of ten patients) was “one”. For the same compound, the “patients with mild jaw pain” value (critical limb ischemia; of ten patients) was “Two”, the “week of complete wound closure” value (critical limb ischemia; patient 5, 15 ng/kg/min) was 6 week and the “week of complete resolution of rest pain” value (critical limb ischemia; patient 7, 7.5 ng/kg/min) was 6 week. For the same compound, the “week of complete wound closure” value (critical limb ischemia; patient 7, 7.5 ng/kg/min) was 12 week, the “week of complete resolution of ischemic rest pain” value (critical limb ischemia; patient 10, 15 ng/kg/min) was 2 week and the “week of complete wound closure” value (critical limb ischemia; patient 10, 15 ng/kg/min) was 12 week. For the same compound, the “new wounds during the trial” value (critical limb ischemia; ten patients) was “No patient developed a new wound”, the “serious adverse events (SAEs)” value (critical limb ischemia; ten patients) was “two” and the “most common side effect” value (critical limb ischemia; ten patients, sc infusion up to 15 ng/kg/min) was “infusion site pain”. The “patients switched to a non-sedating, non-narcotic pain medication” value (critical limb ischemia; week 12) was “one”, the “patients with complete pain relief who discontinued all pain medications” value (critical limb ischemia; week 12) was “two” and the “patients with increased consumption of pain medication” value (critical limb ischemia; week 12) was “one”. For the same compound, the “patients with medication usage unchanged from baseline” value (critical limb ischemia; week 12) was 4 patients, the “patients with reduced pain medication consumption” value (critical limb ischemia; week 12) was “three” and the “average rest pain, mean VAS (0-10)” value (critical limb ischemia; week 12, baseline mean 7.1) was 2.4. The “worst rest pain, mean VAS (0-10)” value (critical limb ischemia; week 12, baseline mean 8.4) was 2.5 and the “inflammatory cytokine (tumor necrosis factor-α, interleukin-1β, interleukin-6, GM-CSF) secretion and gene expression” value [1] was “inhibits”.
